# Measurements published in US20090142330A1, “Use of inactive-plasmin to treat chronic inflammatory disease and tumors” (The Government of the United States of America as …, priority 2007, published 2009).
# Legend:
# Format in all cases: cell-based, human
# [1] = system: MMP-1 production by monocytes; experiment: MMP-1 protein in monocyte conditioned media, Western blot
# Source text: Reagents. High molecular weight urokinase plasminogen activator (HMW-uPA), low molecular weight uPA (LMW-uPA), amino-terminal fragment-uPA (ATF-uPA) and α2-antiplasmin were obtained from American Diagnostica Inc. (Stamford, Conn.). […] LPS Escherichia coli 05:B55 was purchased from Sigma-Aldrich (St. Louis, Mo.). ERK1/2/phospho-ERK1/2 and p38/phospho-p38 antibodies were from Cell Signaling Technology (Beverly, Mass.). MMP-1 antibodies used were rabbit polyclonal antibodies against MMP-1 (provided by Dr. Henning Birkedal-Hansen, NIDCR/NIH) and a mouse anti-human MMP-1 monoclonal antibody (Chemicon International, Inc., Temecula, Calif.). Rabbit anti-COX-2 antibodies were obtained from Cayman Chemical Company (Ann Arbor, Mich.) and mouse anti-β-actin antibodies were from Chemicon International, Inc., Temecula, Calif.). Purification and culture of human monocytes. Human peripheral blood cells were obtained by leukapheresis of non-disease subjects. The monocyte fraction was purified by counter-flow centrifugal elutriation as previously described (Wahl et al., Cell Immunol. 85: 373-383, 1984; and Wahl et al., “In Current Protocols in Immunology,” eds. John Wiley & Sons, Inc. NY. Vol. 2: 7.6A.1-7.6A.10., 2005) and contained greater than 90% monocytes as determined by morphology and flow cytometry. Monocytes were cultured in serum-free Dulbecco Modified Eagle's Medium (DMEM; Cambrex, Walkersville, Md.) supplemented with 2 mM L-glutamine (Mediatech, Herndon, Va.) and 10 μg/ml gentamycin (Cambrex, Walkersville, Md.). Western blot analysis of MMP-1, MAPKs and COX-2. For MMP-1 determination, purified monocytes were cultured at a density of 5×10^6/ml of DMEM in 12 well polystyrene plates (Corning Incorporated Life Sciences, Lowell, Mass.). After 36 to 48 hours of treatment with reagents, the conditioned media were centrifuged and collected. Bovine serum albumin (BSA; 40 μg/ml) was added to the culture supernatants prior to the precipitation of the proteins with cold ethanol (final concentration, 60%) for at least 15 min at −70° C. The proteins were pelleted by microcentrifuging at 20,800×g for 12 min, washed with ethanol, and lyophilized by rotary evaporation. The lyophilized proteins were resuspended in sodium dodecyl sulfate (SDS)-Laemmli buffer [500 mM Tris-HCl (pH 6.8)/10% SDS/0.01% bromophenol-blue/20% glycerol], reduced with 5% β-mercaptoethanol, heated for 4 min at 100° C., and electrophoresed on a 10 or 12% Tris-glycine gel in SDS running buffer [25 mM Tris-HCl (pH 8.3)/192 mM glycine/[…]]. The proteins were transferred onto 0.45 μm nitrocellulose in a buffer containing 25 mM Tris-HCl (pH 8.3)/192 mM glycine/20% methanol and blocked with 50 mM Tris-HCl (pH 7.5)/150 mM NaCl (TBS) containing 5% nonfat dry milk for at least 1 hour. The blots were then incubated overnight with antibodies against MMP-1.
# (§1) Western blots for MMP-1, MAPKs and COX-2 were incubated overnight with primary antibodies, washed and analyzed by the addition of Alexa Fluor 680 goat anti-rabbit or Alexa Fluor 750 goat anti-mouse antibodies (Molecular Probes® Inc., Eugene, Oreg.) and the infrared fluorescence detected with the Odyssey infrared imaging system (LI-COR, Lincoln, Nebr.). Densitometry analysis of the bands on the Western blots was determined with the LI-COR software analysis program or the ImageQuant software analysis program (Amersham Biosciences, Piscataway, N.J.).
# cyclooxygenase-2 (COX-2) = experiment: COX-2 protein in monocyte membranes, Western blot; settings: LPS 25 ng/ml; HMW-uPA 30 nM or plasmin 360 nM; FIG. 4A
# Experimental: Cell protein isolation for the determination of COX-2 protein levels were prepared as previously described (Zhang et al., J. Clin. Invest. 99: 894-900, 1997). Briefly, 20×10^6 monocytes in 4 ml of DMEM were cultured in suspension in 17 ml polypropylene tubes overnight in the presence or absence of reagents. The cells were then washed in phosphate buffered saline with protease inhibitors. The cell pellets were resuspended in 250 mM sucrose containing protease inhibitors and sonicated (Ultrasonic Cell Disrupter, Kontes, American Instrument Exchange, Inc., Haverhill, Mass.). Nuclear debris and unbroken cells were pelleted at 100×g and the supernatant microfuged at 1,500×g to pellet cell membrane proteins. Equal amounts of protein were loaded onto 12% Tris Glycine gels. […] Equal loading of samples was measured with mouse anti-β-actin antibodies.
# as §1
# p38 MAPK = experiment: Phosphorylation of p38 MAPK in monocytes, Western blot; settings: LPS-stimulated monocytes, 1 hour; FIG. 5B
# Experimental: For detection of the levels of activated ERK1/2 and p38 MAPKs monocytes were cultured in DMEM at 5×10^6/ml in suspension. Ten to 60 minutes after the addition of reagents, the cells were pelleted and lysed with SDS loading buffer (prepared as described above). The supernatants were loaded onto 12% Tris-glycine gels. The blots were then incubated overnight with mouse anti-human antibodies against the phosphorylated forms of ERK1/2 and p38 and with rabbit anti-human antibodies against total ERK1/2 and p38 as a measure of equal loading of the gels.
# as §1
substance,measurement,setting,value
plasmin,protein levels of MMP-1,"[1]; LPS (25 ng/ml) stimulated monocytes, indicated concentrations, FIG. 1A / 2B",dose-dependent increase
same,induction of MMP-1 protein,"[1]; unstimulated (control) monocytes, no LPS",did not induce MMP-1
same,LPS-induced COX-2 protein level,cyclooxygenase-2 (COX-2),increased
same,phosphorylation of p38,p38 MAPK,induced increases
